Legend:
Format in all cases: in vivo
[1] = tested on: Johnsongrass (Sorghum halepense, SORHA); assay: Pre-emerge greenhouse herbicide test, phytotoxicity rating; conditions: 14 days after application, rating scale 0-100
From the text: (§1) A standard greenhouse herbicide activity screening system was used to evaluate the herbicidal efficacy and crop safety of these test compounds. Six broadleaf weed species including redroot pigweed (Amaranthus retroflexus, AMARE), velvetleaf (Abutilon theophrasti, ABUTH), sicklepod (Cassia obtusifolia, CASOB), ivyleaf morningglory (Ipomoea hederacea, IPOHE), lambsquarters (Chenopodium album, CHEAL) and common ragweed (Ambrosia artemisiifolia L., AMBEL) were used as test species. Four grass weed species including green foxtail (Setaria viridis, SETVI), barnyardgrass (Echinochloa crusgalli, ECHCG), Johnsongrass (Sorghum halepense, SORHA), and large crabgrass (Digitaria sanguinalis, DIGSA) were also used. In addition, three crop species, field corn (Zea mays L., var. Dekalb 535, CORN), soybean (Glycine max L., var. Pella 86, SOY), and upland rice (Oryza sp., var.Tebonnet, RICE) were included.
(§2) All plants were grown in 10 cm square plastic pots which were filled with a sandy loam soil mix. For preemerge tests, seeds were planted one day prior to application of the test compounds. Immediately after application, test units of the pre-emerge applications were watered at the soil surface to incorporate the test materials. Subsequently, these test units were bottom-watered.
(§3) All test compounds were dissolved in acetone and applied to the test units in a volume of 187 l/ha. Test materials were applied at rates ranging from 125 g ai/ha to 1000 g ai/ha using a track sprayer equipped with a TJ8001E even flow flat fan spray nozzle. Plants were arranged on a shelf so that the top of the canopy (post-emerge) or top of the soil surface (pre-emerge) was 40-45 cm below the nozzle. Pressurized air was used to force the test solution through the nozzle as it was mechanically advanced (via electrically driven chain drive) over the top of all test plants/pots. This application simulates a typical commercial field herbicide application.
(§4) At 14 days after application of the test materials, phytotoxicity ratings were recorded. A rating scale of 0-100 was used as previously described in Research Methods in Weed Science, 2nd edition, B. Truelove, Ed., Southern Weed Science Society, Auburn University, Auburn, Ala., 1977. Briefly, “0” corresponds to no damage and “100” corresponds to complete death of all plants in the test unit. This scale was used both to determine efficacy against weed species and damage to crop species. Herbicide activity data for various compounds of this invention, which are shown by compound number in Tables 1-9, are shown in Tables 13 and 14.

[2] = tested on: barnyardgrass (Echinochloa crusgalli, ECHCG); assay: as above; conditions: 14 days after application, rating scale 0-100
From the text: as §1, §2, §3, §4

[3] = tested on: green foxtail (Setaria viridis, SETVI); assay: as above; conditions: 14 days after application, rating scale 0-100
From the text: as §1, §2, §3, §4

[4] = tested on: ivyleaf morningglory (Ipomoea hederacea, IPOHE); assay: as above; conditions: 14 days after application, rating scale 0-100
From the text: as §1, §2, §3, §4

[5] = tested on: lambsquarters (Chenopodium album, CHEAL); assay: as above; conditions: 14 days after application, rating scale 0-100
From the text: as §1, §2, §3, §4

[6] = tested on: large crabgrass (Digitaria sanguinalis, DIGSA); assay: as above; conditions: 14 days after application, rating scale 0-100
From the text: as §1, §2, §3, §4

[7] = tested on: redroot pigweed (Amaranthus retroflexus, AMARE); assay: as above; conditions: 14 days after application, rating scale 0-100
From the text: as §1, §2, §3, §4

[8] = tested on: sicklepod (Cassia obtusifolia, CASOB); assay: as above; conditions: 14 days after application, rating scale 0-100
From the text: as §1, §2, §3, §4

[9] = tested on: velvetleaf (Abutilon theophrasti, ABUTH); assay: as above; conditions: 14 days after application, rating scale 0-100
From the text: as §1, §2, §3, §4

[10] = tested on: field corn (Zea mays L., var. Dekalb 535, CORN); assay: Pre-emerge greenhouse test, crop damage rating; conditions: 14 days after application, rating scale 0-100
Summary of the method: (§5)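 Seeds sown in sandy loam mix one day before track-sprayer application of compounds in acetone at 125–1000 g ai/ha (187 l/ha), then surface-watered to incorporate and bottom-watered. Visual rating 14 days after application on a 0–100 scale (0 = no damage, 100 = all plants dead).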

[11] = tested on: upland rice (Oryza sp., var.Tebonnet, RICE); assay: Pre-emerge greenhouse test, crop damage rating; conditions: 14 days after application, rating scale 0-100
Summary of the method: as §5

[12] = tested on: soybean (Glycine max L., var. Pella 86, SOY); assay: Pre-emerge greenhouse test, crop damage rating; conditions: 14 days after application, rating scale 0-100
Summary of the method: as §5

[13] = tested on: Johnsongrass (Sorghum halepense, SORHA); assay: Post-emerge greenhouse herbicide test, phytotoxicity rating; conditions: 14 days after application
From the text: as §1, §3
(§6) In the post-emerge test, a commercial non-ionic surfactant was also included (0.25% v/v) to enhance wetting of the leaf surfaces Qf target plants at rates ranging from 63 g ai/ha to 1000 g ai/ha. For post-emerge tests, seeds were planted 8-21 days prior to the test to allow emergence and good foliage development prior to application of the test substances. At the time of the post-emerge application, plants of all species were usually at the 2-3 leaf stage of development. Post-emerge test units were always bottom-watered.
as §4

[14] = tested on: barnyardgrass (Echinochloa crusgalli, ECHCG); assay: as above; conditions: 14 days after application
From the text: as §1, §3, §6, §4

[15] = tested on: green foxtail (Setaria viridis, SETVI); assay: as above; conditions: 14 days after application
From the text: as §1, §3, §6, §4

[16] = tested on: ivyleaf morningglory (Ipomoea hederacea, IPOHE); assay: as above; conditions: 14 days after application
From the text: as §1, §3, §6, §4

[17] = tested on: lambsquarters (Chenopodium album, CHEAL); assay: as above; conditions: 14 days after application
From the text: as §1, §3, §6, §4

[18] = tested on: large crabgrass (Digitaria sanguinalis, DIGSA); assay: as above; conditions: 14 days after application
From the text: as §1, §3, §6, §4

[19] = tested on: redroot pigweed (Amaranthus retroflexus, AMARE); assay: as above; conditions: 14 days after application
From the text: as §1, §3, §6, §4

[20] = tested on: sicklepod (Cassia obtusifolia, CASOB); assay: as above; conditions: 14 days after application
From the text: as §1, §3, §6, §4

[21] = tested on: velvetleaf (Abutilon theophrasti, ABUTH); assay: as above; conditions: 14 days after application
From the text: as §1, §3, §6, §4

[22] = tested on: field corn (Zea mays L., var. Dekalb 535, CORN); assay: Post-emerge greenhouse test, crop damage rating; conditions: 14 days after application
Summary of the method: (§7)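 Compounds in acetone with 0.25% v/v non-ionic surfactant were track-sprayed at 187 l/ha over plants at the 2-3 leaf stage, at 63 to 1000 g ai/ha. Pots were bottom-watered. Injury was scored visually 14 days later on a 0-100 scale, where 0 is no damage and 100 is complete plant death.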

[23] = tested on: upland rice (Oryza sp., var.Tebonnet, RICE); assay: Post-emerge greenhouse test, crop damage rating; conditions: 14 days after application
Summary of the method: as §7

[24] = tested on: soybean (Glycine max L., var. Pella 86, SOY); assay: Post-emerge greenhouse test, crop damage rating; conditions: 14 days after application
Summary of the method: as §7

Compound: O=c1cc2n(c(=O)n1-c1cc(Oc3ncccn3)c(Cl)cc1F)CCC2 [Compound 5-12]
- phytotoxicity rating SORHA ([1]; 125 g ai/ha): 40
- phytotoxicity rating SORHA ([1]; 500 g ai/ha): 100
- phytotoxicity rating ECHCG ([2]; 125 g ai/ha): 20
- phytotoxicity rating ECHCG ([2]; 500 g ai/ha): 100
- phytotoxicity rating SETVI ([3]; 125 g ai/ha): 100
- phytotoxicity rating SETVI ([3]; 500 g ai/ha): 100
- phytotoxicity rating IPOHE ([4]; 125 g ai/ha): 80
- phytotoxicity rating IPOHE ([4]; 500 g ai/ha): 100
- phytotoxicity rating CHEAL ([5]; 125 g ai/ha): 100
- phytotoxicity rating CHEAL ([5]; 500 g ai/ha): 100
- phytotoxicity rating DIGSA ([6]; 125 g ai/ha): 100
- phytotoxicity rating DIGSA ([6]; 500 g ai/ha): 100
- phytotoxicity rating AMARE ([7]; 125 g ai/ha): 100
- phytotoxicity rating AMARE ([7]; 500 g ai/ha): 100
- phytotoxicity rating CASOB ([8]; 125 g ai/ha): 50
- phytotoxicity rating CASOB ([8]; 500 g ai/ha): 100
- phytotoxicity rating ABUTH ([9]; 125 g ai/ha): 100
- phytotoxicity rating ABUTH ([9]; 500 g ai/ha): 100
- crop damage rating CORN ([10]; 125 g ai/ha): 10
- crop damage rating CORN ([10]; 500 g ai/ha): 40
- crop damage rating RICE ([11]; 125 g ai/ha): 60
- crop damage rating RICE ([11]; 500 g ai/ha): 100
- crop damage rating SOY ([12]; 125 g ai/ha): 40
- crop damage rating SOY ([12]; 500 g ai/ha): 80
- SORHA phytotoxicity rating (0-100) ([13]; 63 g al/ha): 0
- SORHA phytotoxicity rating (0-100) ([13]; 500 g al/ha): 20
- ECHCG phytotoxicity rating (0-100) ([14]; 63 g al/ha): 0
- ECHCG phytotoxicity rating (0-100) ([14]; 500 g al/ha): 40
- SETVI phytotoxicity rating (0-100) ([15]; 63 g al/ha): 0
- SETVI phytotoxicity rating (0-100) ([15]; 500 g al/ha): 50
- IPOHE phytotoxicity rating (0-100) ([16]; 63 g al/ha): 40
- IPOHE phytotoxicity rating (0-100) ([16]; 500 g al/ha): 30
- CHEAL phytotoxicity rating (0-100) ([17]; 63 g al/ha): 60
- CHEAL phytotoxicity rating (0-100) ([17]; 500 g al/ha): 75
- DIGSA phytotoxicity rating (0-100) ([18]; 63 g al/ha): 0
- DIGSA phytotoxicity rating (0-100) ([18]; 500 g al/ha): 40
- AMARE phytotoxicity rating (0-100) ([19]; 63 g al/ha): 80
- AMARE phytotoxicity rating (0-100) ([19]; 500 g al/ha): 40
- CASOB phytotoxicity rating (0-100) ([20]; 63 g al/ha): 10
- CASOB phytotoxicity rating (0-100) ([20]; 500 g al/ha): 50
- ABUTH phytotoxicity rating (0-100) ([21]; 63 g al/ha): 60
- ABUTH phytotoxicity rating (0-100) ([21]; 500 g al/ha): 95
- CORN crop damage rating (0-100) ([22]; 63 g al/ha): 0
- CORN crop damage rating (0-100) ([22]; 500 g al/ha): 20
- RICE crop damage rating (0-100) ([23]; 63 g al/ha): 0
- RICE crop damage rating (0-100) ([23]; 500 g al/ha): 70
- SOY crop damage rating (0-100) ([24]; 63 g al/ha): 50
- SOY crop damage rating (0-100) ([24]; 500 g al/ha): 100

Compound: Nc1ccc(Oc2cc(-n3c(=O)cc4n(c3=O)CCC4)c(F)cc2Cl)cc1 [Compound 5-3]
- phytotoxicity rating SORHA ([1]; 1000 g ai/ha): 40
- phytotoxicity rating ECHCG ([2]; 1000 g ai/ha): 0
- phytotoxicity rating SETVI ([3]; 1000 g ai/ha): 20
- phytotoxicity rating IPOHE ([4]; 1000 g ai/ha): 0
- phytotoxicity rating CHEAL ([5]; 1000 g ai/ha): 0
- phytotoxicity rating DIGSA ([6]; 1000 g ai/ha): 70
- phytotoxicity rating AMARE ([7]; 1000 g ai/ha): 100
- phytotoxicity rating CASOB ([8]; 1000 g ai/ha): 10
- phytotoxicity rating ABUTH ([9]; 1000 g ai/ha): 99
- crop damage rating CORN ([10]; 1000 g ai/ha): 0
- crop damage rating RICE ([11]; 1000 g ai/ha): 20
- crop damage rating SOY ([12]; 1000 g ai/ha): 40
- SORHA phytotoxicity rating (0-100) ([13]; 1000 g al/ha): 0
- ECHCG phytotoxicity rating (0-100) ([14]; 1000 g al/ha): 0
- SETVI phytotoxicity rating (0-100) ([15]; 1000 g al/ha): 0
- IPOHE phytotoxicity rating (0-100) ([16]; 1000 g al/ha): 0
- CHEAL phytotoxicity rating (0-100) ([17]; 1000 g al/ha): 0
- DIGSA phytotoxicity rating (0-100) ([18]; 1000 g al/ha): 0
- AMARE phytotoxicity rating (0-100) ([19]; 1000 g al/ha): 0
- CASOB phytotoxicity rating (0-100) ([20]; 1000 g al/ha): 0
- ABUTH phytotoxicity rating (0-100) ([21]; 1000 g al/ha): 0
- CORN crop damage rating (0-100) ([22]; 1000 g al/ha): 0
- RICE crop damage rating (0-100) ([23]; 1000 g al/ha): 0
- SOY crop damage rating (0-100) ([24]; 1000 g al/ha): 0

— patent US6479435B1, “Diaryl ethers and processes for their preparation and herbicidal and desiccant compositions containing them” (ISK Americas Incorporated, priority 1997, dated 2002)
